Broadly, the IC50 is the point on the concentration scale where inhibition reaches its midpoint. A word on the EC50: it is the concentration needed to bring the measured effect to its halfway point.

Square brackets hold non-standard residues; d marks the D form. Ends that are not written are not given here. Peptide text beside a SMILES is read from it. d(aIle) = CC[C@H](C)[C@@H](N)C(=O)O

Here are results for 7 compounds from patent publication US5543521A, “Compounds that modulate endothelin activity” (Immunopharmaceutics, Inc., priority 1994, dated 1996).

The subject of assay [1] is human ETB receptor. Put plainly: Endothelin Inhibition Binding Test #2: membranes of COS7 cells expressing the human ETB receptor. The conditions noted are these: 125I-ET-1, COS7 membranes expressing human ETB receptor. Here is the method:
COS7 cells were transfected with DNA encoding the ETB receptor, The resulting cells, which express the human ETB receptor, were grown to confluence in T-150 flasks. Membrane was prepared as described above. The binding assay was performed as described above using the membrane preparation diluted with binding buffer to a concentration of 1 μg/100 μl.
The COS7 cells, described above, that had been transfected with DNA encoding the ETB receptor and express the human ETB receptor were grown to confluence in T-175 flasks. Cells from multiple flasks were collected by scraping, pooled and centrifuged for 10 min. at 190×g. The cells were resuspended in phosphate buffered saline (PBS) containing 10 mM EDTA using a Tenbroeck homogenizer. The suspension was centrifuged at 4° C. at 57,800×g for 15 min, the pellet was resuspended in 5 ml of buffer A (5mM HEPES buffer, pH 7.4 containing aprotinin (100 KIU/ml)) and then frozen and thawed once. 5 ml of Buffer B (5 mM HEPES Buffer, pH 7.4 containing 10 mM MnCl2 and 0.001% deoxyribonuclease Type 1) was added, the suspension mixed by inversion and then incubated at 37° C. for 30 minutes. The mixture was centrifuged at 57,800×g as described above, the pellet washed twice with buffer A and then resuspended in buffer C (30 mM HEPES buffer, pH 7.4 containing aprotinin (100 KIU/ml) to give a final protein concentration of 2 mg/ml. […]

Assay [2] concerns the target T1, endothelin receptors (TE 671 cells) (Homo sapiens, UniProt P25101).
T1 construct: host or cells: TE 671 cells (membrane preparation)
T1 sequence (P25101 21-427): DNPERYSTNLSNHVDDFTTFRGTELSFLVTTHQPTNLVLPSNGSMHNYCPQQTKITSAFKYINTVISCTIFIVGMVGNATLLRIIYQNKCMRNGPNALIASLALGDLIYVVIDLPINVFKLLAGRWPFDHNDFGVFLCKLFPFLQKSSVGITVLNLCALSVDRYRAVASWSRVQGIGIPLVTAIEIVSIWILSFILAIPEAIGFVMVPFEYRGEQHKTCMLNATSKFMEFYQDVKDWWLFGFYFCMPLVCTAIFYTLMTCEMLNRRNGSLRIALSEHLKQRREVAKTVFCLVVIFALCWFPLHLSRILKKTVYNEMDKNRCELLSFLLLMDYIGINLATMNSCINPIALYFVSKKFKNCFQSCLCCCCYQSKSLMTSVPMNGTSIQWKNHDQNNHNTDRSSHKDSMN
Put plainly: Endothelin Binding Inhibition Binding Test #1: inhibition of 125I-ET-1 binding to TE 671 cell membranes. The following applies: 125I-ET-1, TE 671 membranes, 4° C. for 16 hours, test compound 1 nM to 100 μM, triplicate. Here is the method:
TE 671 cells (ATCC Accession No. HTB 139) were grown to confluence in T-175 flasks. Cells from multiple flasks were collected by scraping, pooled and centrifuged for 10 min at 190×g. The cells were resuspended in phosphate buffered saline (PBS) containing 10 mM EDTA using a Tenbroeck homogenizer. The suspension was centrifuged at 4° C. at 57,800×g for 15 min, the pellet was resuspended in 5 ml of buffer A (5 mM HEPES buffer, pH 7.4 containing aprotinin (100 KIU/ml)) and then frozen and thawed once. 5 ml of Buffer B (5 mM HEPES Buffer, pH 7.4 containing 10 mM MnCI2 and 0.001% deoxyribonuclease Type 1) was added, the suspension mixed by inversion and then incubated at 37° C. for 30 minutes. The mixture was centrifuged at 57,800×g as described above, the pellet washed twice with buffer A and then resuspended in buffer C (30 mM HEPES buffer, pH 7.4 containing aprotinin (100 KIU/ml) to give a final protein concentration of 2 mg/ml and stored at -70° C. until use.
The membrane suspension was diluted with binding buffer (30 mM HEPES buffer, pH 7.4 containing 150 mM NaCl, 5 mM MgCl2, 0.5% Bacitracin, 0.1% BSA) to a concentration of 6 μg/100 μl. […] The supernatant, containing unbound radioactivity, was decanted and the pellet counted on a Genesys multiwell gamma counter. The degree of inhibition of binding (D) was calculated according to the following equation: [formula] […]

The test system of assay [3] is cardiovascular receptors (cultured aortic smooth muscle cells). The conditions noted are these: read-out: IC50, inhibition of 125 endothelin-1 binding; cited from earlier work.
The target in assay [4] is cardiovascular receptors (aortic smooth muscle membrane). The conditions noted are these: read-out: IC50, inhibition of 125 endothelin-1 binding; cited from earlier work.
Assay [5] deals with endothelinB receptor. The conditions noted are these: endothelinB receptor-rich tissues; cited from earlier work.
The target of assay [6] is cardiovascular receptors (ventricle membranes). The conditions noted are these: read-out: IC50, inhibition of 125 endothelin-1 binding; cited from earlier work.
Assay [7] relates to endothelin-1. The conditions noted are these: cited from earlier work.
In assay [8] the test system is vasoconstriction. The following applies: cited from earlier work.
Assay [9] relates to ETB receptors (non-cardiovascular tissues). The conditions noted are these: kidney, adrenal gland, cerebellum; cited from earlier work.
For assay [10], the system named is ETB receptors (cerebral tissue). The following applies: cited from earlier work.
The test system of assay [11] is porcine pulmonary arteries. The following applies: cited from earlier work.
Assay [12] has as its system isolated vascular strips. The following applies: read-out: EC50, contractile agent; cited from earlier work.
The subject of assay [13] is ETA receptors (cardiovascular tissues). The conditions noted are these: cited from earlier work.

`O=C(O)C1CCC2C(=O)NC(Cc3c[nH]c4ccccc34)C(=O)N12` (stereo not shown) [3-(3-indolylmethyl)-1,4-diaza-2,5-dioxobicyclo[4.3.0]nonane-9-carboxylic acid]: the “activity in the second binding inhibition assay” value in [1] is listed as “no detectable activity”. Moreover, the IC50 in [2] is 22.5 µM.

As to `CC[C@H](C)[C@H]1NC(=O)[C@H](C)NC(=O)[C@@H](CCC(=O)O)NC(=O)[C@@H](Cc2c[nH]c3ccccc23)NC(=O)[C@H](CC(C)C)NC1=O` [BE-18257B, c(D-Glu-L-Ala-allo-D-Ile-L-Leu-D-Trp)] (cyclo(A[d(aIle)]L[dW][dE])), the results for the IC50 in assay [3], in [4] and in [6] were 500 nM, 1400 nM and 800 nM, respectively. Moreover, the “concentration up to which it fails to inhibit binding” value in [5] is more than 100 µM.

Consider `CC(C)C[C@@H]1NC(=O)[C@@H](C(C)C)NC(=O)[C@@H]2CCCN2C(=O)[C@@H](CC(=O)O)NC(=O)[C@@H](Cc2c[nH]c3ccccc23)NC1=O` [BQ-123, c(D-Asp-Pro-D-Val-Leu-D-Trp)] (cyclo(L[dW][dD]P[dV])), for which the “activity as endothelin-1 antagonists” value in [7] is reported as “exhibit activity as endothelin-1 antagonists”.

Consider “(Thr^2, Phe^4, Thr^5, Tyr^6, Lys^7, Tyr^14) endothelin-1 [endothelin-3]”, for which the vasoconstriction potency order result in assay [8] is reported as “endothelin-2>endothelinol>endothelin-3”. Moreover, the “inhibition of 125 endothelin-1 binding” value in assay [9] is “inhibited to the same extent by endothelin-1 and endothelin-3”.

Turning to “(Trp^6,Leu^7) endothelin-1 (CSCSSWLDKECVYFCHLDIIW; ends and bridges not checked; cysteine pairing not given here; UniProt P20800 49-69, looked up) [endothelin-2, endothelin isopeptide]”, the vasoconstriction potency order result in assay [8] was “endothelin-2>endothelinol>endothelin-3”.

Take “[Ala^1,3,11,15 ]endothelin-1: endothelin-1 analog in which the four cys residues are replaced with Ala (ASASSLMDKEAVYFAHLDIIW; Endothelin-1; UniProt P05305 53-73, looked up, variant C1A C3A C11A C15A)”: the “inhibition of 125 ET-1 binding” value in assay [10] is recorded as “inhibits ^125 ET-1 binding to cerebral tissue”. In addition, in assay [11], the “relaxation of pre-contracted arteries” value is on record as “dose-dependent relaxation of pre-contracted porcine pulmonary arteries”.

Take “endothelin-1: potent twenty-one amino acid peptide vasoconstrictor”: in assay [8], the vasoconstriction potency order result was “endothelin-2>endothelinol>endothelin-3”. In addition, the concentration giving a half-maximal response (EC50) in assay [12] is 0.4 nM. Moreover, the “inhibition of 125 endothelin-1 binding” value in assay [9] was “inhibited to the same extent by endothelin-1 and endothelin-3”. Besides, in assay [13], the “potency of inhibition of 125 endothelin-1 binding relative to endothelin-3” value was 40-700.
